Experimental data from the NIST ThermoML archive (doi:10.1016/j.jct.2015.10.001).
± gives the expanded uncertainty stated by the source.

Assay: mn = molality of the nth substance listed, in mol/kg
Conditions: 100 kPa, Liquid; for electrical conductivity: Direct current cell with electrodes; for mass density: Vibrating tube method; for viscosity: Capillary tube (Ostwald / Ubbelohde) method

In the case of CCCCn1cc[n+](C)c1.O=C([O-])c1ccccc1O [1-butyl-3-methylimidazolium salicylate] + O, the electrical conductivity (303.15 K, m1 = 0.008) is reported as 0.0559 ± 0.002 S/m, the electrical conductivity (303.15 K, m1 = 0.01) is reported as 0.0659 ± 0.0022 S/m and the electrical conductivity (303.15 K, m1 = 0.0144) is reported as 0.0871 ± 0.0027 S/m. For the same compound, the electrical conductivity (303.15 K, m1 = 0.0221) was 0.118 ± 0.0036 S/m, the mass density (303.15 K, m1 = 0.00579) was 995.88 ± 1.6 kg/m3 and the mass density (303.15 K, m1 = 0.007) was 995.93 ± 1.6 kg/m3. It also gave a mass density (303.15 K, m1 = 0.00801) of 995.97 ± 1.6 kg/m3, a mass density (303.15 K, m1 = 0.01056) of 996.07 ± 1.6 kg/m3 and a mass density (303.15 K, m1 = 0.01278) of 996.17 ± 1.6 kg/m3. It also gave a mass density (303.15 K, m1 = 0.0158) of 996.29 ± 1.6 kg/m3, a mass density (303.15 K, m1 = 0.01707) of 996.35 ± 1.6 kg/m3 and a mass density (303.15 K, m1 = 0.02056) of 996.5 ± 1.6 kg/m3. For the same compound, the mass density (303.15 K, m1 = 0.02523) was 996.7 ± 1.6 kg/m3, the viscosity (308.15 K, m1 = 0.0058) was 0.765 ± 0.016 mPa·s and the viscosity (308.15 K, m1 = 0.0071) was 0.77 ± 0.016 mPa·s. For the same compound, the viscosity (308.15 K, m1 = 0.0117) was 0.787 ± 0.016 mPa·s, the viscosity (308.15 K, m1 = 0.0205) was 0.811 ± 0.017 mPa·s and the viscosity (308.15 K, m1 = 0.0353) was 0.845 ± 0.018 mPa·s. The viscosity (308.15 K, m1 = 0.0384) was 0.851 ± 0.018 mPa·s, the viscosity (308.15 K, m1 = 0.0552) was 0.882 ± 0.018 mPa·s and the viscosity (308.15 K, m1 = 0.0765) was 0.916 ± 0.019 mPa·s. The electrical conductivity (308.15 K, m1 = 0.001) was 0.0099 ± 0.0017 S/m, the electrical conductivity (308.15 K, m1 = 0.0037) was 0.0328 ± 0.0018 S/m and the electrical conductivity (308.15 K, m1 = 0.0062) was 0.0501 ± 0.002 S/m. It also gave an electrical conductivity (308.15 K, m1 = 0.0072) of 0.057 ± 0.0022 S/m, an electrical conductivity (308.15 K, m1 = 0.008) of 0.0623 ± 0.0022 S/m and an electrical conductivity (308.15 K, m1 = 0.01) of 0.0745 ± 0.0025 S/m. It also gave an electrical conductivity (308.15 K, m1 = 0.0144) of 0.0986 ± 0.0031 S/m, an electrical conductivity (308.15 K, m1 = 0.0221) of 0.133 ± 0.0041 S/m and a mass density (308.15 K, m1 = 0.00579) of 994.27 ± 1.6 kg/m3. The mass density (308.15 K, m1 = 0.007) was 994.32 ± 1.6 kg/m3, the mass density (308.15 K, m1 = 0.00801) was 994.36 ± 1.6 kg/m3 and the mass density (308.15 K, m1 = 0.01056) was 994.46 ± 1.6 kg/m3. The mass density (308.15 K, m1 = 0.01278) was 994.55 ± 1.6 kg/m3, the mass density (308.15 K, m1 = 0.0158) was 994.68 ± 1.6 kg/m3 and the mass density (308.15 K, m1 = 0.01707) was 994.74 ± 1.6 kg/m3. The mass density (308.15 K, m1 = 0.02056) was 994.89 ± 1.6 kg/m3, the mass density (308.15 K, m1 = 0.02523) was 995.09 ± 1.6 kg/m3 and the viscosity (313.15 K, m1 = 0.0058) was 0.701 ± 0.015 mPa·s. It also gave a viscosity (313.15 K, m1 = 0.0071) of 0.707 ± 0.015 mPa·s, a viscosity (313.15 K, m1 = 0.0117) of 0.723 ± 0.015 mPa·s and a viscosity (313.15 K, m1 = 0.0205) of 0.749 ± 0.016 mPa·s. It also gave a viscosity (313.15 K, m1 = 0.0353) of 0.783 ± 0.016 mPa·s, a viscosity (313.15 K, m1 = 0.0384) of 0.789 ± 0.016 mPa·s and a viscosity (313.15 K, m1 = 0.0552) of 0.819 ± 0.017 mPa·s. For the same compound, the viscosity (313.15 K, m1 = 0.0765) was 0.853 ± 0.018 mPa·s, the electrical conductivity (313.15 K, m1 = 0.001) was 0.011 ± 0.0019 S/m and the electrical conductivity (313.15 K, m1 = 0.0037) was 0.0362 ± 0.002 S/m. For the same compound, the electrical conductivity (313.15 K, m1 = 0.0062) was 0.0551 ± 0.0022 S/m, the electrical conductivity (313.15 K, m1 = 0.0072) was 0.0629 ± 0.0024 S/m and the electrical conductivity (313.15 K, m1 = 0.008) was 0.0686 ± 0.0025 S/m. The electrical conductivity (313.15 K, m1 = 0.01) was 0.0826 ± 0.0028 S/m, the electrical conductivity (313.15 K, m1 = 0.0144) was 0.111 ± 0.0035 S/m and the electrical conductivity (313.15 K, m1 = 0.0221) was 0.149 ± 0.0046 S/m. For the same compound, the mass density (313.15 K, m1 = 0.00579) was 992.45 ± 1.6 kg/m3, the mass density (313.15 K, m1 = 0.007) was 992.5 ± 1.6 kg/m3 and the mass density (313.15 K, m1 = 0.00801) was 992.54 ± 1.6 kg/m3. It also gave a mass density (313.15 K, m1 = 0.01056) of 992.64 ± 1.6 kg/m3, a mass density (313.15 K, m1 = 0.01278) of 992.73 ± 1.6 kg/m3 and a mass density (313.15 K, m1 = 0.0158) of 992.86 ± 1.6 kg/m3. For the same compound, the mass density (313.15 K, m1 = 0.01707) was 992.91 ± 1.6 kg/m3, the mass density (313.15 K, m1 = 0.02056) was 993.06 ± 1.6 kg/m3 and the mass density (313.15 K, m1 = 0.02523) was 993.26 ± 1.6 kg/m3.
